{"source": "patent US9452226B2", "about": "“Rodent model of central neuropathic pain caused by dorsal root entry zone avulsion at T13” (priority 2008, dated 2016)", "key": {"[1]": {"test_system": "rats having DREZs avulsed at T13/L1", "assay": "von Frey allodynia test in T13/L1 DREZ avulsion rat model, intrathecal ibudilast (Example 2)", "format": "in vivo", "settings": "intrathecally daily in corn oil carrier; unilateral (FIG. 2) or bilateral (FIG. 3) DREZ avulsion; vs sham controls receiving corn oil", "protocol": "Rats were anesthetized using isoflurane. Under aseptic condition, the skin was incised in the midline along the posterior thoracolumbar region. The paravertebral muscles were retracted laterally to expose the posterior aspect of the spinal laminae. Laminectomies were performed and the dura mater then incised along the midline to expose the dorsal rootlets 10 of T13 and L1. The dorsal rootlets of T13 and L1 were then avulsed out of the spinal cord 15 on the left side using micronstrumentation 5 (see FIG. 4B). A visual defect 25 in pia and dorsal cord where the rootlets 10 were avulsed can be seen in FIG. 4B. The grey matter 30 of the spinal cord 15 is also shown. Hemostasis was obtained and a layer of gelfoam placed over the dura. The wound was closed in layers. Perioperative antibiotics were administered in prophylaxis against infection. Subject rats were tested for allodynia of the hindpaws with the von Frey hair test, beginning day one post surgery and continuing daily over the subsequent four weeks. Rat animal model was generated similar to above. In one experiment, DREZ avulsion was unilateral (FIG. 2). In one experiment, DREZ avulsion was bilateral (FIG. 3). Ibudilast was delivered intrathecally daily in a corn oil carrier, with sham controls receiving only the corn oil."}, "[2]": {"test_system": "rats with unilateral T13/L1 dorsal root avulsion", "assay": "von Frey test after unilateral T13/L1 dorsal root avulsion, daily s.c. AV411 (Example 5)", "format": "in vivo, rat", "protocol": "The dorsal spinal cord was exposed by laminectomy at the T13/L1 spinal level. The T13 and L1 dorsal roots were each isolated, clamped at the dorsal root entry zone (DREZ) and briskly pulled out of the spinal cord as described above. AV411 was administered to animals avulsed at the T13 and L1 dorsal root entry zones. The compound AV411 was administered to animals subject to the T13 and L1 hind paws. […] The reversal begins after 5-6 injections and continues to reverse behavior until day 33. The contralateral paw began to resolve at day 28 and the ipsilateral paw was still sensitive at day 33. […] Response thresholds on the von Frey test were recorded prior to and across a timecourse after avulsion surgery. Beginning on Day 12 post-surgery, rats (n=4/group) received once daily s.c. injections of either the glial activation inhibitor AV411/Ibudilast (Sigma; 5-mg/kg or 10-mg/kg) or equivolume vehicle (corn oil; 0.5-ml/kg). Daily drug treatment and intermittent behavioral testing continued through 33 days after surgery."}}, "note": "“Also recorded” adds a separate entry of the source.", "data": [{"smiles": "CC(C)C(=O)c1c(C(C)C)nn2ccccc12", "note": "[AV411, 2-methyl-1-(2-propan-2-ylpyrazolo[1,5-a]pyridin-3-yl)propan-1-one]", "values": [{"measurement": "effect on allodynia in the model", "setting": "[1]", "value": "decreases allodynia"}, {"measurement": "difference between the 5 mg and 10 mg dose", "setting": "[2]; allodynia reversal, daily s.c.", "value": "not differences"}, {"measurement": "reversal of behavior continues until", "setting": "[2]; days after surgery, daily s.c. treatment through day 33", "value": 33, "unit": "days"}, {"measurement": "effect on allodynia induced by avulsion (von Frey response thresholds)", "setting": "[2]; once daily s.c. 5-mg/kg or 10-mg/kg from Day 12 post-surgery through day 33, vs corn oil vehicle", "value": "reversed allodynia; also recorded: reverses bilateral allodynia"}, {"measurement": "effect of administering AV411 on hind paw mechanical allodynia as printed", "setting": "[2]; unilateral T13/L1 dorsal root avulsion, lasting upwards of 1.5 months", "value": "induces bilateral mechanical allodynia"}]}]}
